The values that follow come from US7608716B2, “Pyrazolonaphthyridine derivative” (Aska Pharmaceutical Co., Ltd., priority 2002, dated 2009).

Some results are limits rather than exact numbers.

The subject of series [1] is actively sensitized guinea pigs. Briefly: Inhibition of antigen-induced immediate asthmatic response (airway resistance, Konzett-Rossler). The series is classed as in vivo, Hartley guinea pigs. The note with it: Cavia porcellus, oral, 60 minutes prior to antigen-challenge, reduction of increase in airway resistance, read-out: Inhibition of Asthmatic response ED50: mg/kg orally. Here is the method: Male Hartley outbred guinea pigs were sensitized by administering intraperitoneally physiological saline (0.5 ml) containing ovalbumin (1 mg, antigen) and 5×10^9 inactivated Bordetella pertussis dead cells (adjuvant). Eleven to thirteen days after the first sensitization, 0.05 ml of an ovalbumin solution (1 mg/ml) (ovalbumin is dissolved in physiological saline) was administered to the lateroabdominal region of each guinea pig intracutaneously. An establishment of sensitization was checked relying on cutaneous reaction. Only guinea pigs wherein significant reddening responses occurred 5 to 10 minutes later were employed in the next measurement test for airway resistance.
The guinea pigs (3 animals per group) actively sensitized in the above step (1) were employed to measure for their airway pressure according to Konzett-Rossler method (Arch. Exp. Path. Pharmakol., 195, 71 (1940)).
Thirteen days after the final sensitization, guinea pigs fasted overnight, and were on the next day anesthetized with a pentobarbital solution (30 mg/1.2 ml/kg, dissolved in physiological saline, intraperitoneal administration). After the guinea pigs were fixed in a supine position, their trachea was incised followed by insertion with one port of a 4-port cannula. Among the remaining 3 ports, 2 ports were connected to an artificial respirator (Model 683, Harvard). The animals were ventilated with 10 ml/kg of air per ventilation at a rate of 60 beats/min via the artificial respirator from the cannula. One port remainder was connected to a respiratory amplifier (AR-601G, Nihon Kohden, Japan) via an airflow resistance tube (TV-241T, Nihon Kohden, Japan) and a differential pressure transducer (TP-602T, Nihon Kohden, Japan) connected with a control box (RY-111S, Nihon Kohden, Japan). From a catheter inserted into a left carotid artery, blood pressures were monitored with a blood pressure measurement unit (AP641G, NEC Corp., Japan) via a blood pressure transducer (TP-300T, Nihon Kohden, Japan), and heart rates were recorded on a thermal recorder (WT-685G, Nihon Kohden, Japan), relying on blood pressure pulse waves after being led to a cardiograph unit (AT601G, Nihon Kohden, Japan).
After airway pressure became stable, an ovalbumin solution (1 mg/ml, dissolved in physiological saline) was administered at a dose of 1 ml/kg via a tube with which the right jugular vein of guinea pigs was cannulated.
Each test compound was suspended in 0.5% CMC-Na solution and administered orally with an oral sound at a dose of 0.03 to 20 mg/2 ml/kg 60 minutes prior to the antigen-challenge. Control groups received only 0.5% CMC-Na solution in an equivalent amount. The pentobarbital-anesthetization and tracheal incision were conducted 30 minutes prior to the antigen-challenge.
Each percent reduction of increase in airway resistance (each test compound-administered group versus control group) was calculated according to the equation given below. ED50 was obtained by Probit method.

Series [2] deals with T1, PDE IV isozymes separated from U937 culture cells.
T1 construct: PDE IV isozymes as used herein were separated from U937 culture cells by using an anion exchange chromatography
The experiment in a line: PDE IV inhibition ([3H]-cAMP hydrolysis). The series is classed as biochemical. Particulars: cAMP 1 μM substrate, 30° C., 20 minutes. Here is the method:
PDE IV isozymes as used herein were separated from U937 culture cells by using an anion exchange chromatography. Type IV PDE isozyme was admixed with ethylene glycol (EG) to adjust the final EG concentration to 30%, then stored at −20° C. and diluted when used. The enzymatic activity for PDE IV was measured using cAMP as a substrate.
Each test compound was dissolved in DMSO to adjust the final concentration to 1% (2.5 μl/tube).
Incubation Buffer Solution (pH7.5):
• Tris-HCl (50 mM), magnesium chloride (6 mM), dithiothreitol (2.5 mM), 5-nucleotidase (4 μg/ml), bovine serum albumin (0.23 mg/ml), and cAMP (1 μM).
A mixture of the aforementioned test compound solution and the buffer solution was incubated at 30° C. for 20 minutes. The reaction was quenched by admixing with 1 ml of anion exchange resin slurry (AG1-X8, 200-400 meshes, chloride form; Bio-Rad) to absorb unreacted substrates. After the reaction stopped, the mixture was centrifuged at 800×g for 10 minutes, and the resulting supernatant was collected with vials in 250 μl aliquots. To each vial was added 5 ml of ACS-II (scintillator, Amersham). The radioactivity was measured with a liquid scintillator counter for [^3H]-adenosine and set as the PDE IV activity.

Another series has as its system Beagle dogs. The experiment in a line: Emetic action on dogs. The series is classed as in vivo. Particulars: oral, 1 mg/kg. The method, then: Beagle dogs received a suspension of each test compound in 0.5% CMC-Na solution orally at a dose of 1 mg/2 mL/kg.
The subject of series [3] is lung eosinophil infiltration. Briefly: Inhibition of lung eosinophil infiltration (OVA-sensitized, BALF). The class given is in vivo, Hartley guinea-pigs. Particulars: Cavia porcellus, guinea-pigs, oral, 1 hour before OVA inhalation, BALF eosinophils at 24 hours, read-out: Inhibition of Lung Eosinophil Infiltration ED50: mg/kg orally. The method, then:
Hartley guinea-pigs were sensitized by inhaling twice 1% ovalbumin (OVA) in a physiological saline for 10 minutes with a nebulizer (Atom Medical Corporation, Japan) at an interval of 1 week. The animals were orally given a suspension of test compounds at a dose of 0.03 to 3 mg/2 mL/kg one week after the final sensitization. One hour later, the animals were exposed to antigens by inhalation of 2% OVA in a physiological saline for 5 minutes with a nebulizer. Thirty minutes before the antigen challenge, the animals were intraperitoneally pretreated with pyrilamine at a dose of 10 mg/kg to avoid fatality due to anaphylactic shock. Bronchoalveolar lavage fluid (BALF) samples were collected 24 hours after the exposure by inhalation of antigens, and eosinophils were counted.

The next series relates to TNF-α production. The experiment in a line: Inhibition of TNF-α production in galactosamine- and LPS-stimulation. The note with it: Mus musculus; C3H/HeN mice, oral, 1 hour before galactosamine/LPS i.v.; serum TNF-α by ELISA 1 hour later; read-out: Inhibition of TNF-α production ED50: mg/kg orally. The series is classed as in vivo. Here is the method:
A suspension of each test compound in 0.5% CMC-Na solution was administered orally to C3H/HeN mice at a dose of 0.10 to 10 mg/kg. One hour later, the animals received intravenously galactosamine at a dose of 800 mg/kg and LPS at a dose 5 μg/kg to raise the induction of TNF-α production. One hour later after the galactosamine- and LPS-administration, amounts of TNF-α in serum samples were measured by ELISA, and ED50 was obtained. Roflumilast and SB207499 were used for the reference compounds in this assay.
Background: In an ELISA, binding on a coated surface is turned into a signal by an enzyme label.

The next series addresses T2, CYP2D6 (Homo sapiens, UniProt P10635).
T2 construct: purchased BD Biosciences, NJ, USA; host or cells: CYP2D6-expressing system microsomes
Briefly: Inhibition of drug-metabolizing enzyme CYP2D6 (CYP2D6/AMMC kit). The series is classed as in vitro ADME. Particulars: CYP2D6-expressing microsomes, AMMC substrate, 37° C., 30 minutes; read-out: Inhibition of Drug-Metabolizing Enzymes (IC50; μM) CYP2D6. Here is the method:
(§1) The inhibitory effect on CYP2D6 and CYP3A4 was determined using High Throughput Inhibitor Screening Kits: CYP2D6/AMMC and CYP3A4/BFC (both from BD Biosciences, NJ, USA). Briefly, each of NADPH regenerating systems, cofactors, and test compounds was dispensed into 96-well plates, followed by addition of each of fluorescent substrates, AMMC (CYP2D6) or BFC (CYP3A4). To each well were added CYP2D6-expressing system microsomes or CYP3A4-expressing system microsomes, and the plates were incubated at 37° C. for 30 minutes, and then read for fluorescent signals (CYP2D6: ex=390 nm, em=460 nm; CYP3A4: ex=409 nm, em=538 nm wherein excitation wavelength: ex and emission wavelength: em). Thus, each inhibitory efficacy on enzymes CYP2D6 and CYP3A4 was determined. Roflumilast was used for the reference compound in this assay.

In series [4] the test system is lung neutrophil infiltration. The experiment in a line: Inhibition of lung neutrophil infiltration (LPS inhalation, BALF). The series is classed as in vivo, Hartley guinea-pigs. The note with it: Cavia porcellus, guinea-pigs, oral, 1 hour before LPS inhalation, BALF neutrophils at 24 hours, read-out: Inhibition of Lung Neutrophil Infiltration ED50: mg/kg orally. The method, then:
Hartley guinea-pigs were orally received a suspension of test compounds at a dose of 0.03 to 3 mg/2 mL/kg. One hour later, the animals were received 0.1 mg/mL lipopolylsaccharide (LPS) in a physiological saline via an inhalational route with a nebulizer for 30 minutes. Twenty-four hours after the LPS inhalation, BALF samples were collected, and neutrophils were counted.

The target of a further series is T3, CYP3A4 (Homo sapiens, UniProt P08684).
T3 construct: purchased BD Biosciences, NJ, USA; host or cells: CYP3A4-expressing system microsomes
T3 sequence (P08684 whole entry): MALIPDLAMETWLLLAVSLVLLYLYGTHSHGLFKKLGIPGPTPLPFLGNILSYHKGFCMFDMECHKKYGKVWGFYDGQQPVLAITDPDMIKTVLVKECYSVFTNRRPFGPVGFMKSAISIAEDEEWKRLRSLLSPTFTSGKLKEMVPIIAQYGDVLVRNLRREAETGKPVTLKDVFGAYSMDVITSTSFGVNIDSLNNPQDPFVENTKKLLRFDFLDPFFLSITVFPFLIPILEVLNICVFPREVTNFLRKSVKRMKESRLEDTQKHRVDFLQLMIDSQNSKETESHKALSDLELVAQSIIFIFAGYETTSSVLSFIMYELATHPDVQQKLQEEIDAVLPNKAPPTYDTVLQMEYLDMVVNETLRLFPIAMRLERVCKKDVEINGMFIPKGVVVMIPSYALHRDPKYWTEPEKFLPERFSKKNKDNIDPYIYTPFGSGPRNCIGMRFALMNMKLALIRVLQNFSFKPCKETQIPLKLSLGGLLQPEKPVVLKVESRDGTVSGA
The experiment in a line: Inhibition of drug-metabolizing enzyme CYP3A4 (CYP3A4/BFC kit). The series is classed as in vitro ADME. Particulars: CYP3A4-expressing microsomes, BFC substrate, 37° C., 30 minutes; read-out: Inhibition of Drug-Metabolizing Enzymes (IC50; μM) CYP3A4. Here is the method: as §1

T2 sequence (P10635 whole entry): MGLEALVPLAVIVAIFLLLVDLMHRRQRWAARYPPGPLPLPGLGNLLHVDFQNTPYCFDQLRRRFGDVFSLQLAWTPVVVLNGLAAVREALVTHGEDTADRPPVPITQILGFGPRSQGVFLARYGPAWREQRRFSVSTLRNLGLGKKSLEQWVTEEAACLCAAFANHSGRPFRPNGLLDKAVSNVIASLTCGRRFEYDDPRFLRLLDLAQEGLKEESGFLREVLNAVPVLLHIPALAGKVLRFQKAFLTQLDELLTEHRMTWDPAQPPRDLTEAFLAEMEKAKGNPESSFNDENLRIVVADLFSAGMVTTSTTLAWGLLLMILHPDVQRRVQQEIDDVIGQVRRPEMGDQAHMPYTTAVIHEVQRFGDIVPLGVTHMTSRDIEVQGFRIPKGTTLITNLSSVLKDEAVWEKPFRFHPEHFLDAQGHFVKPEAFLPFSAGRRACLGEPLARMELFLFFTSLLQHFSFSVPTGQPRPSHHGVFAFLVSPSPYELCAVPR

With `COc1ccc(C2CNC(=O)C2)cc1OC1CCCC1` (single isomer, unassigned; (-)) [Rolipram, (−)-4-[3-(cyclopentyloxy)-4-methoxyphenyl]-2-pyrrolidinone], the ED50 in series [1] came out at 0.51 mg/kg.
Consider `O=c1c2c(CCc3cc[n+]([O-])cc3)n[nH]c2c2cccnc2n1-c1ccccc1` [Example No. 5, 5-phenyl-3-[2-(1-oxypyridin-4-yl)ethyl]-1H-pyrazolo[4,3-c][1,8]-naphthyridin-4 (5H)-one], for which the melting point is 285 °C (dec.). In series [2], this compound displayed an IC50 of 0.067 µM.
In the same order, the values of `O=c1c2c(CCc3ccncc3)n[nH]c2c2cccnc2n1-c1cccc([N+](=O)[O-])c1` [Example No. 6, 5-(3-nitrophenyl)-3-[2-(pyridin-4-yl)ethyl]-1H-pyrazolo[4,3-c][1,8]naphthyridin-4 (5H)-one] are 161 to 165 °C and 0.025 µM.
The corresponding values for `O=c1c2c(Cc3ccc(O)cc3)n[nH]c2c2cccnc2n1-c1ccccc1` [Example No. 41, 3-(4-hydroxybenzyl)-5-phenyl-1H-pyrazolo[4,3-c][1,8]-naphthyridin-4 (5H)-one] are 316 to 317 °C and 0.089 µM.
Regarding `Nc1ccc(Cc2n[nH]c3c2c(=O)n(-c2ccccc2)c2ncccc32)cc1` [Example No. 43, 3-(4-aminobenzyl)-5-phenyl-1H-pyrazolo[4,3-c][1,8]-naphthyridin-4 (5H)-one], the midpoint of inhibition in series [2], the IC50, lay at 0.086 µM.
In turn, `O=C(O)Cc1ccc(Cc2n[nH]c3c2c(=O)n(-c2ccccc2)c2ncccc32)cc1` [Example No. 46, 3-(4-carboxymethylbenzyl)-5-phenyl-1H-pyrazolo[4,3-c][1,8]naphthyridin-4 (5H)-one] yielded a melting point of 297 to 300 °C. For the same compound, the midpoint of inhibition in series [2], the IC50, lay at 0.032 µM.
Take `N#Cc1cccc(-n2c(=O)c3c(Cc4ccccc4)n[nH]c3c3cccnc32)c1` [Example No. 53, 3-benzyl-5-(3-cyanophenyl)-1H-pyrazolo[4,3-c][1,8]-naphthyridin-4 (5H)-one]: the IC50 in series [2] is 0.028 µM.
On the same count and under the same terms, the figure for `O=c1c2c(Cc3ccccc3)n[nH]c2c2cccnc2n1-c1cccc([N+](=O)[O-])c1` [Example No. 56, 3-benzyl-5-(3-nitrophenyl)-1H-pyrazolo[4,3-c][1,8]-naphthyridin-4 (5H)-one] is 0.023 µM.
With `O=c1c2c(Cc3ccccc3)n[nH]c2c2cccnc2n1-c1cccc(F)c1` [Example No. 58, 3-benzyl-5-(3-fluorophenyl)-1H-pyrazolo[4,3-c][1,8]-naphthyridin-4 (5H)-one], 0.035 µM corresponded to half-maximal inhibition in series [2] (IC50).
Take `O=C(Nc1c(Cl)cncc1Cl)c1ccc(OC(F)F)c(OCC2CC2)c1` [Roflumilast, 3-(cyclopropylmethoxy)-N-(3,5-dichloro-4-pyridyl)-4-(difluoromethoxy)benzamide, reference compound]: the Occurrence of emesis in the series on Beagle dogs is 2 animals among 3 were afflicted with emetic reactions. Further, the ED50 in series [1] amounted to 0.66 mg/kg; in series [3], 0.36 mg/kg; with TNF-α production it was 0.26 mg/kg; in [4], 0.98 mg/kg. Also, the results for the half-inhibitory concentration (IC50) on CYP2D6 and on CYP3A4 were 9.1 µM and 0.98 µM, respectively.
As for `COc1ccc([C@]2(C#N)CC[C@@H](C(=O)O)CC2)cc1OC1CCCC1` [SB207499, cis-4-cyano-4-[3-(cyclopentyloxy)-4-methoxyphenyl]cyclohexane-1-carboxylic acid, reference compound], the ED50 in [1] is over 20 mg/kg; with TNF-α production, 3.3 mg/kg.

A word on the melting point: it is the temperature of the solid-liquid transition. As a reminder, the IC50 is the concentration that gives 50% inhibition.
